According to PubChem BioAssay AID330 (DTP/NCI, 2004):
Several values for one entry are separate records, joined by “and”; a condition that tells them apart may be missing. Equal entries are not always repeated. Inconclusive results and toxic doses are left out. How the source made its calls: active means survival T/C of 150% or more; inactive means T/C below 125% in these data.

System: P388 leukemia ip, CD2F1 mice, survival T/C
Experiment: NCI In Vivo Anticancer Drug Screen. Data for tumor model P388 Leukemia (intraperitoneal) in CD2F1 (CDF1) mice
Settings: endpoint: median survival time, higher = longer survival
Summary of the method: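 Mice carrying the transplanted tumor received test compound or vehicle. Survival was recorded in each group, and the value is the treated-group measurement divided by that of the vehicle-treated control group.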

[1] = dose: 100.0 mg/kg/injection, schedule: Q04DX003 (ip), vehicle: saline
[2] = dose: 200.0 mg/kg/injection, schedule: Q04DX003 (ip), vehicle: saline
[3] = dose: 50.0 mg/kg/injection, schedule: Q01DX009 (ip), vehicle: saline with Tween-80
[4] = dose: 100.0 mg/kg/injection, schedule: Q01DX009 (ip), vehicle: saline with Tween-80
[5] = dose: 6.25 mg/kg/injection, schedule: Q01DX009 (ip), vehicle: saline with Tween-80
[6] = dose: 12.5 mg/kg/injection, schedule: Q01DX009 (ip), vehicle: saline with Tween-80
[7] = dose: 25.0 mg/kg/injection, schedule: Q01DX009 (ip), vehicle: saline with Tween-80
[8] = dose: 50.0 mg/kg/injection, schedule: Q01DX005 (ip), vehicle: Klucel (hydroxypropylcellulose) (HPC)
[9] = dose: 100.0 mg/kg/injection, schedule: Q01DX005 (ip), vehicle: Klucel (hydroxypropylcellulose) (HPC)
[10] = dose: 25.0 mg/kg/injection, schedule: Q01DX005 (ip), vehicle: saline with Tween-80
[11] = dose: 50.0 mg/kg/injection, schedule: Q01DX005 (ip), vehicle: saline with Tween-80

Measured: T/C

COC(/C=N/O)c1ccccc1 (stereo unspecified)
inactive: dose: 25.0 mg/kg/injection, schedule: Q04DX003 (ip), vehicle: saline with Tween-80 100 % of control | dose: 25.0 mg/kg/injection, schedule: Q04DX003 (ip), vehicle: saline 109 % of control | dose: 50.0 mg/kg/injection, schedule: Q04DX003 (ip), vehicle: saline with Tween-80 100 % of control and 94 % of control | dose: 50.0 mg/kg/injection, schedule: Q04DX003 (ip), vehicle: saline 101 % of control | dose: 100.0 mg/kg/injection, schedule: Q04DX003 (ip), vehicle: saline with Tween-80 106 % of control and 87 % of control | [1] 101 % of control | [2] 105 % of control

CNCCC(Oc1ccccc1OC)c1ccccc1 (stereo unspecified)
inactive: dose: 12.5 mg/kg/injection, schedule: Q04DX002 (ip), vehicle: saline with Tween-80 106 % of control | dose: 25.0 mg/kg/injection, schedule: Q04DX002 (ip), vehicle: saline with Tween-80 100 % of control | dose: 25.0 mg/kg/injection, schedule: Q04DX002 (ip), vehicle: saline 113 % of control | dose: 50.0 mg/kg/injection, schedule: Q04DX002 (ip), vehicle: saline with Tween-80 99 % of control and 98 % of control | dose: 50.0 mg/kg/injection, schedule: Q04DX002 (ip), vehicle: saline 103 % of control

CC(Cl)C(=O)N/N=C(/c1ccccc1)C(C)(C)C (stereo unspecified)
inactive: [3] 89 % of control | [4] 86 % of control

COc1ccc[nH]c1=O
inactive: dose: 50.0 mg/kg/injection, schedule: Q01DX009 (ip), vehicle: saline 102 % of control and 103 % of control | dose: 100.0 mg/kg/injection, schedule: Q01DX009 (ip), vehicle: saline 106 % of control and 109 % of control | dose: 200.0 mg/kg/injection, schedule: Q01DX009 (ip), vehicle: saline 100 % of control and 105 % of control | dose: 400.0 mg/kg/injection, schedule: Q01DX009 (ip), vehicle: saline 105 % of control and 112 % of control | dose: 600.0 mg/kg/injection, schedule: Q01DX009 (ip), vehicle: saline 106 % of control and 114 % of control

CC(C)CCC1=CC(=O)C(CCC(C)C)=CC1=O
inactive: dose: 3.12 mg/kg/injection, schedule: Q01DX009 (ip), vehicle: saline with Tween-80 104 % of control | [5] 104 % of control | [6] 106 % of control | [7] 101 % of control

COC(=O)c1cc(-c2ccc([N+](=O)[O-])cc2)c2c(=O)n(-c3ccccc3)[nH]c2n1
inactive: dose: 60.0 mg/kg/injection, schedule: Q01DX005 (ip), vehicle: saline with Tween-80 94 % of control | dose: 120.0 mg/kg/injection, schedule: Q01DX005 (ip), vehicle: saline with Tween-80 87 % of control | dose: 240.0 mg/kg/injection, schedule: Q01DX005 (ip), vehicle: saline with Tween-80 88 % of control

CC(C)CC(NC(=O)OCC1c2ccccc2-c2ccccc21)C(=O)O (stereo unspecified)
inactive: [8] 101 % of control | [9] 100 % of control

O=C1C(Cl)=C(Nc2cccc3ccccc23)C(=O)c2ccccc21
inactive: dose: 6.25 mg/kg/injection, schedule: Q01DX005 (ip), vehicle: saline with Tween-80 104 % of control | dose: 12.5 mg/kg/injection, schedule: Q01DX005 (ip), vehicle: saline with Tween-80 101 % of control | [10] 109 % of control | [11] 108 % of control

CC(C)NC(=O)OCc1c(COC(=O)NC(C)C)c(S(=O)(=O)c2ccccc2)n2c1CCC2
inactive: [10] 89 % of control | [11] 86 % of control | dose: 100.0 mg/kg/injection, schedule: Q01DX005 (ip), vehicle: saline with Tween-80 90 % of control | dose: 200.0 mg/kg/injection, schedule: Q01DX005 (ip), vehicle: saline with Tween-80 93 % of control

CCCC(=O)NC1=C(N2CC2)C(=O)C(NC(=O)CCC)=C(N2CC2)C1=O
inactive: dose: 0.13 mg/kg/injection, schedule: Q01DX009 (ip), vehicle: saline with Tween-80 120 % of control | dose: 0.2 mg/kg/injection, schedule: Q01DX009 (ip), vehicle: saline with Tween-80 118 % of control | dose: 0.44 mg/kg/injection, schedule: Q01DX009 (ip), vehicle: saline with Tween-80 112 % of control | [5] 86 % of control | dose: 12.5 mg/kg/injection, schedule: Q04DX003 (ip), vehicle: saline with Tween-80 104 % of control
active: dose: 1.0 mg/kg/injection, schedule: Q01DX009 (ip), vehicle: saline with Tween-80 157 % of control | dose: 1.56 mg/kg/injection, schedule: Q01DX009 (ip), vehicle: saline with Tween-80 181 % of control | dose: 2.5 mg/kg/injection, schedule: Q04DX003 (ip), vehicle: saline with Tween-80 159 % of control | dose: 3.13 mg/kg/injection, schedule: Q04DX003 (ip), vehicle: saline with Tween-80 154 % of control | dose: 5.0 mg/kg/injection, schedule: Q04DX003 (ip), vehicle: saline with Tween-80 200 % of control | dose: 6.25 mg/kg/injection, schedule: Q04DX003 (ip), vehicle: saline with Tween-80 227 % of control

CN(C)CCCN1CN(CCCN(C)C)CN(CCCN(C)C)C1
inactive: dose: 50.0 mg/kg/injection, schedule: Q01DX005 (ip), vehicle: saline 99 % of control | dose: 100.0 mg/kg/injection, schedule: Q01DX005 (ip), vehicle: saline 103 % of control

CCOC(=O)C12CCOC1(OC)NC(=O)C=C2C(=O)OC (stereo unspecified)
inactive: dose: 100.0 mg/kg/injection, schedule: Q04DX003 (ip), vehicle: Klucel (hydroxypropylcellulose) (HPC) 110 % of control | dose: 200.0 mg/kg/injection, schedule: Q04DX003 (ip), vehicle: Klucel (hydroxypropylcellulose) (HPC) 110 % of control | dose: 400.0 mg/kg/injection, schedule: Q04DX003 (ip), vehicle: Klucel (hydroxypropylcellulose) (HPC) 118 % of control

COc1ccc(C(C)(C)CC(C)(C)C)cc1
inactive: [6] 101 % of control | [7] 104 % of control | [3] 104 % of control | [4] 109 % of control

Cc1ccc(NC(=O)N2CC2)cc1NC(=O)N1CC1
inactive: dose: 0.78 mg/kg/injection, schedule: Q01DX009 (ip), vehicle: Klucel (hydroxypropylcellulose) (HPC) 112 % of control | dose: 6.25 mg/kg/injection, schedule: Q01DX009 (ip), vehicle: Klucel (hydroxypropylcellulose) (HPC) 107 % of control and 90 % of control
active: dose: 3.12 mg/kg/injection, schedule: Q01DX009 (ip), vehicle: Klucel (hydroxypropylcellulose) (HPC) 154 % of control

C/C(=N\NC(=S)Nc1ccc(S(=O)(=O)O)cc1)c1ccccn1
inactive: [8] 107 % of control | dose: 50.0 mg/kg/injection, schedule: Q01DX005 (ip), vehicle: suspension in saline 101 % of control | [9] 108 % of control | dose: 100.0 mg/kg/injection, schedule: Q01DX005 (ip), vehicle: suspension in saline 105 % of control | dose: 200.0 mg/kg/injection, schedule: Q01DX005 (ip), vehicle: Klucel (hydroxypropylcellulose) (HPC) 106 % of control | dose: 200.0 mg/kg/injection, schedule: Q01DX005 (ip), vehicle: suspension in saline 121 % of control | dose: 400.0 mg/kg/injection, schedule: Q01DX005 (ip), vehicle: Klucel (hydroxypropylcellulose) (HPC) 115 % of control

O=C(CCCCl)NN=C(c1ccccc1)c1ccccc1
inactive: dose: 42.0 mg/kg/injection, schedule: Q01DX009 (ip), vehicle: saline with Tween-80 100 % of control | dose: 84.0 mg/kg/injection, schedule: Q01DX009 (ip), vehicle: saline with Tween-80 97 % of control | dose: 168.0 mg/kg/injection, schedule: Q01DX009 (ip), vehicle: saline with Tween-80 95 % of control

CCCCCCCCCCCCCCCC(=O)O
inactive: [3] 107 % of control | [4] 102 % of control | dose: 200.0 mg/kg/injection, schedule: Q01DX009 (ip), vehicle: saline with Tween-80 102 % of control

C/C(N)=C/C(=O)c1ccccc1
inactive: [1] 102 % of control | [2] 100 % of control | dose: 400.0 mg/kg/injection, schedule: Q04DX003 (ip), vehicle: saline 105 % of control

COc1cccc2c1C(=O)c1nccc3cc4c(c-2c13)OCO4
inactive: dose: 30.0 mg/kg/injection, schedule: Q01DX005 (ip), vehicle: Klucel (hydroxypropylcellulose) (HPC) 91 % of control | dose: 60.0 mg/kg/injection, schedule: Q01DX005 (ip), vehicle: Klucel (hydroxypropylcellulose) (HPC) 90 % of control | dose: 120.0 mg/kg/injection, schedule: Q01DX005 (ip), vehicle: Klucel (hydroxypropylcellulose) (HPC) 110 % of control

C[n+]1cccc(NC(=O)c2ccc(NC(=O)c3ccc(C(=O)Nc4ccc(NC(=N)N)cc4)cc3)cc2)c1
inactive: dose: 4.7 mg/kg/injection, schedule: Q01DX009 (ip), vehicle: saline 110 % of control | dose: 9.4 mg/kg/injection, schedule: Q01DX009 (ip), vehicle: saline 90 % of control
active: dose: 12.5 mg/kg/injection, schedule: Q04DX003 (ip), vehicle: saline 195 % of control
